The text below walks through data of patent publication US6528535B2, “Bicyclic inhibitors of protein farnesyl transferase” (Warner-Lambert Company, priority 1997, dated 2003).

Data set [1] has as its target T1, SF9 affinity purified rat FPT (Rattus norvegicus, UniProt Q02293+Q04631).
T1 construct: made in house; host or cells: Sf9 insect cells
Description: PFT (farnesyl protein transferase) inhibitory activity, radiolabeled farnesyl pyrophosphate / biotinyl peptide bead assay. The class given is biochemical. The conditions noted are these: average of two tests unless n is given in parentheses; read-out: FTase, IC50. A digest of the protocol:
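Rat FPT, affinity-purified from SF9 cells, was run at 30° C. for 30 min in HEPES pH 7.4 with 5 mM potassium phosphate, 20 μM ZnCl2, 5 mM DTT, 5 mM MgCl2 and 0.1% PEG 8000; the assay was also run without phosphate. Substrates were [3H]farnesyl pyrophosphate (134 nM) and biotinyl-Ahe-TKCVIM peptide (0.2 μM). Product was captured on streptavidin beads and counted.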

The subject of data set [2] is EJ-1 human bladder carcinoma. The conditions noted are these: 100 mg/kg; EJ-1 human bladder carcinoma xenograft in nude mice; cited from earlier work. Background: In xenograft studies the graft and the host belong to different species.
The subject of data set [3] is HT1080 human fibrosarcoma. The conditions noted are these: 100 mg/kg; HT1080 human fibrosarcoma xenograft in nude mice; cited from earlier work.
Data set [4] has as its system human colon carcinoma xenografts. The conditions noted are these: 100 mg/kg; human colon carcinoma xenografts in nude mice; cited from earlier work.
The subject of data set [5] is human lung carcinoma with K-ras mutation and p53 deletion. The conditions noted are these: nude mice; cited from earlier work.
For data set [6], the system named is mammary and salivary carcinomas. As to conditions: daily administration; ras transgenic mice; cited from earlier work.

The IC50 is the concentration that gives 50% inhibition. The melting point is the temperature, or range, at which the solid turns liquid. In turn, `ON=C1CCCc2cc(OCCn3ccnc3)ccc21` [Example 53, 6-[2-(1H-1-Imidazolyl)ethoxyl]-1,2,3,4-tetrahydro-1-naphthalenone oxime] registered a melting point of 177 to 179 °C. The IC50 in data set [1] turned out to be 3000 nM. `O=C(O)CON=C1CCCc2cc(OCCn3ccnc3)ccc21` [Example 54, [6-(2-Imidazol-1-yl-ethoxy)-3,4-dihydro-2H-naphthalen-1-ylideneaminooxy]-acetic acid] showed a melting point of 193 to 195 °C. The IC50 in data set [1] was found to be 340 nM.

Consider `O=C1CC(c2ccccc2)Oc2cc(OCCn3ccnc3)ccc21` (stereo not shown) [Example 76, 7-[2-(1H-1-Imidazolyl)ethoxy]-2-phenyl-4-chromanone], for which the melting point was in the range of 139 to 140 °C. In data set [1], the IC50 came to 120 nM. On the same counts, the results for `O=c1cc(-c2ccccc2)oc2cc(OCCn3ccnc3)ccc12` [Example 77, 7-[2-(1H-1-Imidazolyl)ethoxy]-2-phenyl-4H-4-chromenone] are 155 to 159 °C and 9300 nM. On the same counts, the results for `CC(COc1ccc2c(c1)CCCC2=O)n1ccnc1` (stereo not shown) [Example 78, 6-[2-(1H-1-Imidazolyl)propoxy]-1,2,3,4-tetrahydro-1-naphthalenone] are 132 to 135 °C and 2600 nM. For `CC(COc1ccc2c(c1)CC/C(=C\c1cccs1)C2=O)n1ccnc1` (stereo not shown) [Example 79, 6-[2-(1H-1-Imidazolyl)propoxy]-2-[(E)-1-(2-thienyl)methylidene]-1,2,3,4-tetrahydro-1-naphthalenone] the same measures were 160 to 162 °C and 230 nM. Consider `CC1(C)CC(=O)c2ccc(OCCn3ccnc3)cc2O1` [Example 83, 7-[2-(1H-Imidazolyl)ethoxy]-2,2-dimethyl-4-chromanone], for which the melting point is 84 to 86 °C. In addition, the IC50 in data set [1] was 900 nM. Regarding `COC(=O)[C@H](CCSC)NC(=O)[C@H](/C=C\[C@@H](/C=C/[C@@H](N)CS)C(C)C)Cc1ccccc1` [Example B1086], the tumor growth entry in data set [2], in data set [3] and in data set [4] was “inhibit tumor growth” throughout. Regarding `CSCC[C@H](NC(=O)c1ccc(NC[C@@H](N)CS)cc1-c1ccccc1)C(=O)O` [FTI276], the tumor growth entry in data set [5] is given as “selectively block tumor growth”. Consider `CC[C@H](C)[C@@H](CO[C@@H](Cc1ccccc1)C(=O)N[C@@H](CCS(C)(=O)=O)C(=O)OC(C)C)NC[C@@H](N)CS` [L-744,832], for which the tumor regression entry in data set [6] is “caused tumor regression”.
